According to patent publication EP1698638A1, “Lipopeptides having pharmaceutical activity” (Technische Universität Berlin, priority 2005, dated 2006):

What was measured:
Type in all cases: cell-based
Bacillus subtilis = assay: disk diffusion assay on LB-agar plates; settings: 10 µg in 30 µL 50% MeOH per disk
Experimental: (§1) The antifungal activity of the compounds according to the present invention, in particular hassallidin A and hassallidin B, was verified for Aspergillus fumigatus and Candida albicans by minimum inhibitory concentration (MIC) data in a serial dilution test. For each fungus six testing wells of a microtiter plate were prepared with 240 µL medium (Sigma RPMI-1640), 10 µL inoculum suspension and 50 µL fungicide solution (50% MeOH) of different concentrations. Inoculum preparation was carried out by guideline of NCCLS.^25 The fungicide solution preparation took place in a series of twofold dilutions from a stock solution of 92 µg/mL starting with 4.6 µg/50 µL down to 0.14 µg/50 µL. One well was prepared without antifungal agent for unhindered growth as control. The microtiter plates were incubated for Candida albicans and Aspergillus fumigatus at 35 °C for 24 h and 48 h, respectively. Tests were run in triplicates. Inhibition of growth was assessed by comparing the fungal growth of the test samples with the control well by determination of optical density at 595 nm in a microplate reader. The concentration of the well at highest dilution that was still free from growth was assigned the minimum inhibitory concentration (MIC in µg/mL). […] No activities were observed by using Bacillus subtilis, Streptomyces versicolor or Escherchia coli in disk diffusion assays on LB-agar plates with 10 µg hassallidin A in 30 µL 50% MeOH per disk.

Escherchia coli = assay: disk diffusion assay on LB-agar plates; settings: 10 µg in 30 µL 50% MeOH per disk
Experimental: as §1

Streptomyces versicolor = assay: disk diffusion assay on LB-agar plates; settings: 10 µg in 30 µL 50% MeOH per disk
Experimental: as §1

[1] = test system: Acremonium strictum RKI 226/03; assay: microdilution assay (NCCLS), inhibitory concentration (IC); settings: RPMI-1640 medium
Experimental: (§2) More specifically, a determination of inhibitory concentration (IC) of hassallidin A and hassallidin B for various fungi, Candida species and Candida strains were performed with different media (RPMI-1640 or SAB or AM3) in a microdilution assay by following the guidelines in NCCLS documents M^38-P^25 and M27-A2^26 carried out as follows Each substance was dissolved with 100% dimethyl sulfoxide (Serva, Heidelberg, Germany) to give a stock solution of 3.2 mg/ml followed by nine log2 dilution steps with the solvent. This served as a 100-fold concentrated dilution series ranging from 1.6 mg/ml to 0.003 mg/ml of the test substance. The final concentration of the test substance was 16 µg/ml to 0.031 µg/ml.
(§3) Therefore the 100-fold concentrated dilution series (with 100% DMSO) was diluted to the final concentration by two dilution steps: • (1) Each concentration of the 100-fold concentrated substance was diluted with test medium for 1:50 (for ex.: adding of 13 µl of the test substance to 637 µl test medium). • (2) 100 µl of each 1:50 diluted concentration was filled in a row of wells of a microtitre plate. One well was without the substance but with the 1:50 diluted solvent serving as growth control.
(§4) A further 1:2 dilution of the antifungal was made by the inoculation of each well with 100 µl of the test organism, which was suspended in the test medium. The remaining well of the row was used for sterility control of the medium. The inoculum was strictly prepared according the NCCLS^25 guidelines, resulting in […] for Candida-species and Cryptococcus neoformans. For hyphomycetes CFU's were tenfold higher (see NCCLS). ^26 The growth of the hyphomycetes respectively the inhibition was measured by visual reading with the help of a reading mirror; scoring was done according to NCCLS :^26 score 0 corresponds to a optical clear well or an IC95 or higher, score 1 corresponds to an inhibition of 80 percent (IC80) and the score 2 of the NCCLS definition corresponds to the IC50 values in the tables. The growth of the yeasts was measured spectrophotometrically by a microplate reader (MR 5000, Dynatech laboratories) at 630 nm displaying the optical density (OD). The percent inhibition IC50, IC80 or IC95 (corresponding the scores of 2, 1 and 0) was calculated by the following formula: (100−[(ODof the well−ODof the medium)] × 100)/((ODof the growth control−ODof the medium).) [formula] Table 3. Test series for determining IC values of hassallidin A and B in different media using Candida albicans and Candida krusei. The IC values were measured after 24 h and 48 h at 30 °C.

Candida spp. II = assay: as above; settings: RPMI-1640 medium
Experimental: as §2, §3, §4

[2] = test system: Fusarium solani RKI 144/03; assay: as above; settings: RPMI-1640 medium
Experimental: as §2, §3, §4

[3] = test system: Fusarium solani RKI 233/04; assay: as above; settings: RPMI-1640 medium
Experimental: as §2, §3, §4

[4] = test system: Cryptococcus neoformas RKI 18/05; assay: as above; settings: RPMI-1640 medium
Experimental: as §2, §3
as §4, with “The growth of the yeasts was measured spectrophotometrically by a microplate reader (MR 5000, Dynatech laboratories) at 630 nm displaying the optical density (OD).” left out

For hassallidin A, the “activity in disk diffusion assay” value (Bacillus subtilis) was “No activities”, the “activity in disk diffusion assay” value (Escherchia coli) was “No activities” and the “activity in disk diffusion assay” value (Streptomyces versicolor) was “No activities”. It also gave an IC50 ([1]; 30°C/24h) of 4 to 8 µg/mL, an IC80 ([1]; 30°C/24h) of 16 µg/mL and an IC95 ([1]; 30°C/24h) of 16 µg/mL. For the same substance, the IC50 ([1]; 30°C/48h) was greater than 16 µg/mL, the IC80 ([1]; 30°C/48h) was greater than 16 µg/mL and the IC95 ([1]; 30°C/48h) was greater than 16 µg/mL. It also gave an IC50 (Candida spp. II; 35°C/24h) of 8 µg/mL, an IC80 (Candida spp. II; 35°C/24h) of 8 µg/mL and an IC95 (Candida spp. II; 35°C/24h) of 8 µg/mL. For the same substance, the IC50 (Candida spp. II; 35°C/48h) was 8 µg/mL, the IC80 (Candida spp. II; 35°C/48h) was 8 µg/mL and the IC95 (Candida spp. II; 35°C/48h) was 8 µg/mL. It also gave an IC50 ([2]; 30°C/24h) of 16 µg/mL, an IC80 ([2]; 30°C/24h) of 16 µg/mL and an IC95 ([2]; 30°C/24h) greater than 16 µg/mL. For the same substance, the IC50 ([2]; 30°C/48h) was greater than 16 µg/mL, the IC80 ([2]; 30°C/48h) was greater than 16 µg/mL and the IC95 ([2]; 30°C/48h) was greater than 16 µg/mL. It also gave an IC50 ([3]; 30°C/24h) of 16 µg/mL, an IC80 ([3]; 30°C/24h) of 16 µg/mL and an IC95 ([3]; 30°C/24h) greater than 16 µg/mL. The IC50 ([3]; 30°C/48h) was greater than 16 µg/mL, the IC80 ([3]; 30°C/48h) was greater than 16 µg/mL and the IC95 ([3]; 30°C/48h) was greater than 16 µg/mL. For the same substance, the IC50 ([4]; 35°C/24h, visual) was 4 (visual) µg/mL, the IC80 ([4]; 35°C/24h, visual) was 4 (visual) µg/mL and the IC95 ([4]; 35°C/24h, visual) was 4 (visual) µg/mL. The IC50 ([4]; 35°C/48h) was 4 µg/mL, the IC80 ([4]; 35°C/48h) was 4 µg/mL and the IC95 ([4]; 35°C/48h) was 4 µg/mL.
